Results taken from patent publication US11286278B2, “DPEP-1 binding agents and methods of use” (Arch Biopartners, Inc., priority 2018, dated 2022).
Ends that are not written are not given here.

How the values were obtained:
human DPEP3 = target: T1, human DPEP3 (Homo sapiens, UniProt Q9H4B8); experiment: Immunofluorescence binding to Cos-1 cells transfected with human DPEP3; conditions: Alexa-488 conjugate
T1 construct: expressed in transfected cells; host or cells: Cos-1
T1 sequence (Q9H4B8 36-463): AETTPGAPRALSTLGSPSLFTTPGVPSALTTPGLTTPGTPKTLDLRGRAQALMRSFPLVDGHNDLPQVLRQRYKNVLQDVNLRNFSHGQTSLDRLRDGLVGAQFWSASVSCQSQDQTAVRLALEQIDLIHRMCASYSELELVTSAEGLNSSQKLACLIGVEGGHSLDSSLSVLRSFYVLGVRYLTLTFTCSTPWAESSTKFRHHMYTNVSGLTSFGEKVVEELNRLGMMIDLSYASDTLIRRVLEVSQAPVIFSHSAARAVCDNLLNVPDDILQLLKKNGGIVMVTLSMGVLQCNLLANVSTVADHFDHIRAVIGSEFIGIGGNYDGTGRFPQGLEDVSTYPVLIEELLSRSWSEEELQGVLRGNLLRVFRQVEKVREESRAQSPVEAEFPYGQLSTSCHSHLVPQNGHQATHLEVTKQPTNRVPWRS
Experimental: Cos-1 cells were transiently transfected with either 3 μg of human DPEP-1, DPEP2, or DPEP3 gene using Lipofectamine 2000 (Invitrogen) reagent in OptiMEM medium. 24 hours after transfection, DPEP-1, DPEP2, or DPEP3 expressing cells were re-seeded on collagen coated (neutralized) wells in 24 well plates and allowed to grow for 24 hours at 37° C. […] Cells were blocked with FBS/NBSA/Tween in PBS for 30 minutes on ice. Cells were then washed with PBS and incubated with LSALT or GFE-1, conjugated with Alexa-488 (green). After incubation, cells were washed with PBS and stained with DAPI for 5 minutes on ice. Cells were then washed with PBS and fixed using 4% paraformaldehyde and immunofluorescence microscopy was performed to assess binding. Representative photomicrographs are shown for each experimental condition (n=3) in FIG. 6A. Proteins from DPEP-1, DPEP2 and DPEP3 transfected cells were isolated after 48 hours using octyl-glucoside/RIPA lysis buffer and western blot analysis was performed to assess DPEP-1, DPEP2 and DPEP3 protein expression using specific antibodies; DPEP-1 antibody (Sigma), DPEP2 (Abcam) and DPEP3 (Santacruz). Blots were stripped and reprobed with an anti-β-actin.

DPEP1 = target: T2, DPEP1 (Homo sapiens, UniProt P16444); experiment: Biotin transfer, neutravidin precipitation and DPEP1 western blot; format: binding; parameters: expressed in transfected cells; host or cells: Cos-1; conditions: 10 mg/ml biotin transfer peptide, UV activation
T2 sequence (P16444 17-385): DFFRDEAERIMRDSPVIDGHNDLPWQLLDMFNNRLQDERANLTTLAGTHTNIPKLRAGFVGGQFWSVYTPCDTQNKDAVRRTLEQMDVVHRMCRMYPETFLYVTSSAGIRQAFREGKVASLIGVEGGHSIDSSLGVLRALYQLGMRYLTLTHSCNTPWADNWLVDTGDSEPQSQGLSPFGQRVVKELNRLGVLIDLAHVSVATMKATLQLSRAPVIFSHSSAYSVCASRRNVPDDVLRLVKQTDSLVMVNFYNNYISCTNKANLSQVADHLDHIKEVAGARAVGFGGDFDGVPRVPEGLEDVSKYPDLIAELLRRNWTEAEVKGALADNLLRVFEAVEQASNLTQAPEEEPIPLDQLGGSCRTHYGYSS
Experimental: Cos-1 cells were transiently transfected with either 3 or 5 μg of membrane dipeptidase (DPEP-1) cDNA corresponding to the rat (Shown in FIG. 5A), human (Shown in FIG. 5B), or canine (Shown in FIG. 5E) DPEP-1 gene using Lipofectamine 2000 (Invitrogen) reagent in OptiMEM medium. 24 hours after transfection, DPEP-1 expresisng cells were re-seeded on collagen coated (neutralized) wells in 24 well plates and allowed to grow for 24 hours at 37° C. […] Cells were blocked with FBS/NBSA/Tween in PBS for 30 minutes on ice. Cells were then washed with PBS and incubated with Alexa-488 (green) conjugated LSALT, GFE-1, control peptide or DPEP-1 antibody ( 1/100) (Sigma) on ice for 30 minutes. […] After incubation, cells were washed with PBS and treated with 10 mg/ml biotin transfer peptide (LSALT, GFE-1 or Control Peptide (KGAL)] for 10 minutes. Cells were then washed with PBS and biotin transfer was enabled by UV activation of the aryl azide groups for 15 minutes at 363 nm. Residual fluid was removed and monolayers were lysed either with octyl-glucoside/RIPA or 8M urea. Isolated supernatants were rotated with 50 μl of neutr-avidin agarose beads at 4° C. for 24 hours. Beads were washed with corresponding buffers, boiled in Laemmli buffer and analyzed by western blot using a DPEP-1 specific antibody (Proteintech).

[1] = system: DPEP1-expressing COS1 monolayers; experiment: Cancer cell binding to DPEP1-expressing COS1 monolayers; format: cell-based; conditions: LSALT 50 μM
Experimental: Cos-1 cells were transfected with 3 μg of human DPEP-1 cDNA. Transfected cells were reseeded 24 hours after on 12 or 24 well places. 48 hours later, 70 W melanoma cells expressing stable GFP-luciferase were harvested using Puck's EDTA and 10×10^3 cells were seeded on top of the DPEP-1 expressing Cos-1 monolayer. Cells were incubated for 4 hours at 37 C. After incubation cells were vigorously washed two times with PBS. Cells were then fixed using paraformaldehyde (4%). The number 70 W melanoma cells bound/adhered were counted under 10× magnification over 10 different field of views using an inverted fluorescence microscope (FIG. 24A). […] A unpaired 2-tailed Student's t-test was performed to compare the binding of 70 W melanoma cells to DPEP-1 transfected cells against the control of mock transfected cells. Values shown are from three independent experiments; asterisks (***) indicate P<0.001 as compared with mock transfected cells.
LSALT decreases binding of metastatic cancer cells to DPEP1-expressing COS1 monolayers in vitro. […] FIGS. 21B-C show quantification of murine melanoma B16-F10 (B) or murine breast cancer E0771.LMB (C) cells that bind to COS1 (control) or DPEP1 COS1 in the absence or presence of LSALT (50 μM).

[2] = system: activated (TNFα and IL1β treated) HLMVEC; experiment: Cancer cell binding to activated human lung microvascular endothelial cells; format: cell-based; conditions: 50 μM
Description: LSALT decreases binding of metastatic cancer cells to human lung microvascular endothelial cells (HLMVEC) activated by TNFα and IL1β.

With H-LSALTPSPSWLKYKAL [LSALT] the “binding to human DPEP3 transfected Cos-1 cells” value (human DPEP3) was “does not Bind”, the “interaction with DPEP1 by biotin transfer” value (DPEP1) was “able to interact with DPEP1” and the “binding of murine breast cancer cells (E0771.LMB) to DPEP1 transfected COS-1 cells” value [1] was “inhibits binding of murine cancer cells to DPEP1”. The “binding of murine melanoma cells (B16-F10) to DPEP1 transfected COS-1 cells” value [1] was “inhibits binding of murine cancer cells to DPEP1”, the “binding of murine melanoma cells (B16-F10) to activated HLMVEC” value [2] was “decreased binding” and the “binding of murine sarcoma cells (Tao-1) to activated HLMVEC” value [2] was “decreased binding”.
